In patent publication US12503440B2, “Nitroxoline derivative, preparation method therefor, and use thereof” (Jiangsu Yahong Meditech Co., Ltd., priority 2020, dated 2025):
In brackets after ≈: the same amount, converted by molar mass.

Tests used:
Test in all cases: Bacteriostatic activity, micro broth dilution MIC (CLSI)
Format in all cases: cell-based
Acinetobacter baumannii = conditions: 20 hours; for MIC50 / MIC90: clinical strains (carbapenem-resistant), CAMHB; for MIC50: read-out: Acinetobacter baumannii Clinical strain MIC50; for MIC90: read-out: Acinetobacter baumannii Clinical strain MIC90; for MIC: standard strain ATCC19606, CAMHB
Experimental: (§1) The purpose of this test is to determine the bacteriostatic activity of the compounds of the present invention against a representative panel of strains (Gram-negative bacteria: […] ATCC 25922, Acinetobacter baumannii ATCC 19606; Gram-positive bacteria: Staphylococcus aureus ATCC29213). Bacteriostatic activity was determined by minimum inhibitory concentration (MIC), MIC50, MIC90. This test was entrusted to Shanghai Junj Lab Co., Ltd. Except for the test drugs, all other test materials were provided by Shanghai Junj Lab Co., Ltd.
(§2) The tested bacteria were several strains of clinically isolated carbapenem-resistant Escherichia coli, several strains of carbapenem-resistant Acinetobacter baumannii, several strains of methicillin-resistant Staphylococcus aureus, and several strains of sensitive Staphylococcus aureus. Duplicate strains isolated from the same patient were eliminated. There were also three quality control strains Escherichia coli ATCC 25922, Acinetobacter baumannii ATCC 19606, and Staphylococcus aureus ATCC 29213. The activity test of each compound was carried out on one or more strains of each of the above test bacteria.
(§3) According to the recommendations of relevant documents of the American Clinical and Laboratory Standards Institute (CLSI), the micro broth dilution method was used to determine the MIC of the compounds of the present invention against clinically isolated strains. The culture solution free of drug was used as the test bacteria positive control, the culture solution free of bacterial solution was used as the drug negative control, and the culture solution free of drug solution and bacterial solution was used as the blank control. • 4.1 Formulation of antibacterial drug: All the compounds of the present invention were dissolved in DMSO. The drug concentration range was 128 mg/L-0.06 mg/L. Specific method: The compounds of the present invention were successively diluted by 1:1 with DMSO to obtain an intermediate series with a range of 25600 mg/L-12.5 mg/L. 30 μL of solution from each tube of the intermediate series of each compound was added to a 3 mL/tube series of single broth tube, and mixed well to obtain an intermediate series with a range of 256 mg/L to 0.125 mg/L. The diluted series solution was added to the drug susceptibility plate line by line, 50 μL of solution per well. All ranges became investigated ranges after being mixed with an equal volume of bacterial solution: 128-0.06 mg/L. • 4.2 Culture medium: The drug susceptibility test used cation adjusted Mueller-Hinton broth (CAMHB). • 4.3 Amount of inoculum: The test bacteria cultured overnight were adjusted to 0.5 McFarland turbidity by the direct colony suspension method, and diluted 100 folds, the final inoculum amount was 10^5 CFU/mL. • 4.4 Culture conditions: The test bacteria were cultured at 35±2° C. for 20 hours in air. 5. Interpretation and Judgment of Results
(§4) The drug susceptibility test results were interpretated by reference to CLSI 2019 edition M100 29th edition criteria.
(§5) The results of drug susceptibility test were statistically analyzed by WHONET version 5.6 software.
(§6) The culture solution free of bacterial solution was used as the drug negative control, and the culture solution free of drug solution and bacterial solution was used as the blank control, wherein no bacteria grew in both solutions.

Escherichia coli = conditions: 20 hours; for MIC50 / MIC90: clinical strains (carbapenem-resistant), CAMHB; for MIC50: read-out: Escherichia coli Clinical strain MIC50; for MIC90: read-out: Escherichia coli Clinical strain MIC90; for MIC: standard strain ATCC25922, CAMHB
Experimental: as §1, §2, §3, §4, §5, §6

Staphylococcus aureus = conditions: 20 hours; for MIC50 / MIC90: clinical strains (methicillin-resistant and sensitive), CAMHB; for MIC50: read-out: Staphylococcus aureus Clinical strain MIC50; for MIC90: read-out: Staphylococcus aureus Clinical strain MIC90; for MIC: standard strain ATCC29213, CAMHB
Experimental: as §1, §2, §3, §4, §5, §6

Structure (SMILES) | MIC50 (Acinetobacter baumannii) | MIC90 (Acinetobacter baumannii) | MIC (Acinetobacter baumannii) | MIC50 (Escherichia coli) | MIC90 (Escherichia coli) | MIC (Escherichia coli) | MIC50 (Staphylococcus aureus) | MIC90 (Staphylococcus aureus) | MIC (Staphylococcus aureus)
N#Cc1ccnc2c(O)ccc([N+](=O)[O-])c12 [Example 27, 4-cyano-5-nitroquinolin-8-ol] | 32 µg/mL (≈ 149 µM) | 32 µg/mL (≈ 149 µM) | 16 µg/mL (≈ 74.4 µM) | 16 µg/mL (≈ 74.4 µM) | 32 µg/mL (≈ 149 µM) | 16 µg/mL (≈ 74.4 µM) | 16 µg/mL (≈ 74.4 µM) | 16 µg/mL (≈ 74.4 µM) | 16 µg/mL (≈ 74.4 µM)
CCOC(=O)c1cnc2c(O)ccc([N+](=O)[O-])c2c1 [Example 32, ethyl 8-hydroxy-5-nitroquinoline-3-carboxylate] | 64 µg/mL (≈ 244 µM) | 128 µg/mL (≈ 488 µM) | 32 µg/mL (≈ 122 µM) | 64 µg/mL (≈ 244 µM) | 128 µg/mL (≈ 488 µM) | 64 µg/mL (≈ 244 µM) | 2 µg/mL (≈ 7.63 µM) | 4 µg/mL (≈ 15.3 µM) | 4 µg/mL (≈ 15.3 µM)
CC(C)c1cc(O)c2ncccc2c1[N+](=O)[O-] [Example 33, 8-hydroxy-6-isopropyl-5-nitroquinoline] | 32 µg/mL (≈ 138 µM) | 64 µg/mL (≈ 276 µM) |  | 32 µg/mL (≈ 138 µM) | 32 µg/mL (≈ 138 µM) |  | 4 µg/mL (≈ 17.2 µM) | 4 µg/mL (≈ 17.2 µM) | 
O=[N+]([O-])c1c(C2CC2)cc(O)c2ncccc12 [Example 34, 8-hydroxy-6-cyclopropyl-5-nitroquinoline] | 8 µg/mL (≈ 34.7 µM) | 32 µg/mL (≈ 139 µM) |  | 16 µg/mL (≈ 69.5 µM) | 16 µg/mL (≈ 69.5 µM) |  | 4 µg/mL (≈ 17.4 µM) | 4 µg/mL (≈ 17.4 µM) | 
O=C(OCC1CC1)c1cnc2c(O)ccc([N+](=O)[O-])c2c1 [Example 39, cyclopropylmethyl 8-hydroxy-5-nitroquinoline-3-carboxylate] |  |  |  | 64 µg/mL (≈ 222 µM) | 64 µg/mL (≈ 222 µM) | 64 µg/mL (≈ 222 µM) | 1 µg/mL (≈ 3.47 µM) | 1 µg/mL (≈ 3.47 µM) | 2 µg/mL (≈ 6.94 µM)
CCN(CC)C(=O)c1cnc2c(O)ccc([N+](=O)[O-])c2c1 [Example 40, N,N-diethyl-8-hydroxy-5-nitroquinoline-3-carboxamide] |  |  |  | 8 µg/mL (≈ 27.7 µM) | 8 µg/mL (≈ 27.7 µM) | 8 µg/mL (≈ 27.7 µM) | 64 µg/mL (≈ 221 µM) | 64 µg/mL (≈ 221 µM) | 32 µg/mL (≈ 111 µM)
O=[N+]([O-])c1c(F)cc(O)c2ncccc12 [Example 42, 8-hydroxy-6-fluoro-5-nitroquinoline] |  |  |  | 64 µg/mL (≈ 307 µM) | 64 µg/mL (≈ 307 µM) | 64 µg/mL (≈ 307 µM) | 64 µg/mL (≈ 307 µM) | 64 µg/mL (≈ 307 µM) | 64 µg/mL (≈ 307 µM)
O=C(OC1CCCCC1)c1cnc2c(O)ccc([N+](=O)[O-])c2c1 [Example 43, cyclohexyl 8-hydroxy-5-nitroquinoline-3-carboxylate] | 128 µg/mL (≈ 405 µM) | 128 µg/mL (≈ 405 µM) | 128 µg/mL (≈ 405 µM) | 128 µg/mL (≈ 405 µM) | 128 µg/mL (≈ 405 µM) | 128 µg/mL (≈ 405 µM) | 2 µg/mL (≈ 6.32 µM) | 2 µg/mL (≈ 6.32 µM) | 4 µg/mL (≈ 12.6 µM)
